Patent US10172905B1, “Treatment of protein degradation disorders” (President and Fellows of Harvard College, priority 2005, dated 2019)
“Also recorded” adds a separate entry of the source.

Key:
[1] = test system: polyubiquitinated proteins; assay: Western blotting with anti-Ub Ab; assay type: cell-based, human; settings: tubacin alone
Description: (§1) Cells cultured with tubacin and/or bortezomib were harvested; washed, and lysed using lysis buffer: 50 mM Tris-HCl (pH 7.4), 150 mM NaCl, 1% NP-40, 5 mM EDTA, 5 mM NaF, 1 mM Na3VO4, 1 mM PMSF, 5 μg/ml leupeptine, and 5 μg/ml aprotinin. Whole cell lysates were subjected to SDS-PAGE, transferred to nitrocellulose membrane (Bio-Rad Laboratories, Hercules, Calif.), and immunoblotted with specific Abs (31). Western blotting was done using anti-HDAC6, acetylated lysine, acetylated histone H3, acetylated histone H4, ubiquitin (Ub), phospho-SAPK (JNK), caspase-8 caspase-9, caspase-3, and PARP Abs (Cell Signaling, Beverly, Mass.); with anti-α-tubulin Ab (Santa Cruz Biotechnology, Santa Cruz, Calif.); as well as with anti-dynein Ab (Sigma, Saint Louis, Mo.). For immunoprecipitation, whole cell lysates were incubated with anti-Ub or dynein Abs overnight at 4° C., and then incubated with protein A/G PLUS-Agarose (Santa Cruz Biotechnology) for 2 h at 4° C., as in our prior study (31). Immunoprecipitates were then subjected to Western blotting for detection of HDAC6 and dynein.

MM.1S and RPMI8226 cells = assay: [3H]-thymidine uptake of MM cells adherent to BMSCs; assay type: cell-based, human
Description: […] DNA synthesis was measured as described above.
After treatment, DNA synthesis was measured by [^3H]-thymidine (Perkin Elmer, Boston Mass.) uptake, as previously described (44). All experiments were performed in quadruplicate.

MM cell lines = assay: MTT growth inhibition / cytotoxicity assay in MM cell lines; assay type: cell-based, human; settings: for growth inhibitory / cytotoxic effect as single agent: MM cell lines, MTT and 3H-thymidine uptake
Description: The inhibitory effect of bortezomib and/or tubacin on MM cell growth was assessed by measuring 3-(4,5-dimethylthiazol-2-yl)-2,5-diphenyl tetrazolium bromide (MTT) dye absorbance, as described previously (33). […] All experiments were performed in quadruplicate.
These cells were treated with tubacin (1.25-20 μM) for 48 h (FIG. 2A) and 72 h (FIG. 2B), and cytotoxicity was assessed by MTT assay, as describe.

[2] = test system: MM patient plasma cells from BM (BMPCs); assay: MTT cytotoxicity assay in MM patient plasma cells; assay type: cell-based, human; settings: tubacin 5 μM with bortezomib, 24 h
Excerpt: Dex-sensitive (MM.1S) and resistant (MM.1R) human MM cell lines were kindly provided by Dr. Steven Rosen (Northwestern University, Chicago, Ill.). RPMI8226 and U266 human MM cell lines were obtained from American Type Culture Collection (Rockville, Md.). IL-6 dependent INA-6 cell line was kindly provided by Dr M Gramatzki (Erlangen, Germany). Melphalan-resistant RPMI-LR5 and doxorubicin-resistant RPMI-Dox40 cell lines were provided by Dr William Dalton (Lee Moffitt Cancer Center, Tampa, Fla.). All MM cell lines were cultured in RPMI-1640 containing 10% fetal bovine serum (FBS, Sigma Chemical Co., St. Louis, Mo.), […] L-glutamine, 100 U/ml penicillin, and 100 μg/ml streptomycin (GIBCO, Grand Island, N.Y.). INA-6 cells were maintained with addition of IL-6 (1 ng/ml). MM patient plasma cells were purified from bone marrow (BM) aspirates by negative selection using an antibody cocktail (RosetteSep Separation System, StemCell Technologies, Vancouver, Canada), as previously described (31). The purity of MM cells was >90%, as confirmed by flow cytometric analysis using anti-CD138 Ab (BD Pharmingen, San Diego, Calif.). […]
The inhibitory effect of bortezomib and/or tubacin on MM cell growth was assessed by measuring 3-(4,5-dimethylthiazol-2-yl)-2,5-diphenyl tetrazolium bromide (MTT) dye absorbance, as described previously (33). […]

[3] = biological target: T1, interaction of HDAC6 with dynein (Homo sapiens, UniProt Q9UBN7); assay: Co-immunoprecipitation of HDAC6 with dynein or ubiquitinated proteins; assay type: cell-based; settings: tubacin 2.5 and 5 μM, 8 h, MM.1S cells
T1 sequence (Q9UBN7 1-1215): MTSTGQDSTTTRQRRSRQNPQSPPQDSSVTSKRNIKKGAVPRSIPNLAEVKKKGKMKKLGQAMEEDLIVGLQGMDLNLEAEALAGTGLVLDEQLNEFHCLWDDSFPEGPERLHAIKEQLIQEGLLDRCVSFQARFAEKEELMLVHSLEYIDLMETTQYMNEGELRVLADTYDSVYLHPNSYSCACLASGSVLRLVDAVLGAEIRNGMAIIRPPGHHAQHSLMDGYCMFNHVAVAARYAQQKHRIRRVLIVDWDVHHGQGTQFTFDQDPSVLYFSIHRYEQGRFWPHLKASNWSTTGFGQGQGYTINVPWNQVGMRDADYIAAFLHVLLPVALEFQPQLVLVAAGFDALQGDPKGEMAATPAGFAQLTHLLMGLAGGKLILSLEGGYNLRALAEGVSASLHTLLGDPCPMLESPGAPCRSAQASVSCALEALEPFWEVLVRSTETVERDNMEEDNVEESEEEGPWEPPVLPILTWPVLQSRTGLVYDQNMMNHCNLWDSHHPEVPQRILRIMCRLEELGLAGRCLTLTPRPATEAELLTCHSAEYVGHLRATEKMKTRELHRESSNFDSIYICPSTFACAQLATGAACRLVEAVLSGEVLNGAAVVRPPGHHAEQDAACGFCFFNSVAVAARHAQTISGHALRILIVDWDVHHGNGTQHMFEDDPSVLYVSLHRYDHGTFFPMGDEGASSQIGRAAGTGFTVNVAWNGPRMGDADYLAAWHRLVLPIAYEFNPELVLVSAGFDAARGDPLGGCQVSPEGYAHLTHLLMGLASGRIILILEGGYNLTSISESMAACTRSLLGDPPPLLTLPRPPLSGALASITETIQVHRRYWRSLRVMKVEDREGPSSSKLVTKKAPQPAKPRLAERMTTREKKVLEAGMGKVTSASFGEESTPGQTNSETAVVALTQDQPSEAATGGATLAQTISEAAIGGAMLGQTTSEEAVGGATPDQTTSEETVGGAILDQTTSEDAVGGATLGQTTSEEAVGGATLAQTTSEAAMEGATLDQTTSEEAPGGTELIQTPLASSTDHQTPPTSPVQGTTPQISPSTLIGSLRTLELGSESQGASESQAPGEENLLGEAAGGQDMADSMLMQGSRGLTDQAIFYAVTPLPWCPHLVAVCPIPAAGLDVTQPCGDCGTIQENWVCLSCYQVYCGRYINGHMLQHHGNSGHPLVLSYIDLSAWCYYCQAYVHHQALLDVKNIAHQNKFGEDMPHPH
Description: as §1

O=C(CCCCCCC(=O)Nc1ccc([C@H]2O[C@@H](CSc3nc(-c4ccccc4)c(-c4ccccc4)o3)C[C@@H](c3ccc(CO)cc3)O2)cc1)NO [tubacin]
polyubiquitinated proteins ([1]; MM.1S cells): no significant change
polyubiquitinated proteins ([1]; RPMI8226 cells): significantly accumulate; also recorded: increase in cellular ubiquitinated proteins
BMSC-induced [3H]-thymidine uptake / MM cell growth with BMSCs, single agent (MM.1S and RPMI8226 cells; MM cells adherent to BMSCs, 24 h): inhibits BMSC-induced [^3H]-thymidine uptake in a dose-dependent fashion; also recorded: significantly inhibits MM.1S cell growth even in the presence of BMSCs; also recorded: inhibits paracrine MM cell growth
effect of tubacin on bortezomib-induced inhibition of [3H]-thymidine uptake (MM.1S and RPMI8226 cells; adherent MM.1S and RPMI8226 cells, tubacin with bortezomib): significantly enhances bortezomib-induced inhibition of [^3H]-thymidine uptake; also recorded: further augmented cytotoxicity of Velcade
IC50 (MM cell lines; Homo sapiens, 72 h, drug-sensitive and -resistant MM cell lines): 5 to 20 µM
growth inhibitory / cytotoxic effect as single agent (MM cell lines): marked anti-proliferative, proapoptotic effects; also recorded: dose-dependent growth inhibitory effect
growth inhibitory / cytotoxic effect as single agent (MM cell lines; listed as Tubacin): cytotoxic
effect of tubacin on bortezomib (Velcade)-induced cytotoxicity (MM cell lines; MM.1S and RPMI8226 cells, 24 h, MTT): synergistically enhances bortezomib-induced cytotoxicity; also recorded: Synergy; also recorded: potently sensitizes myeloma cells to subtoxic concentrations of bortezomib; also recorded: significantly (p<0.01) augmented cytotoxicity triggered by Velcade; also recorded: synergistic anti-tumor activity
effect of tubacin on bortezomib (Velcade)-induced cytotoxicity in patient MM cells [2]: markedly augmented by tubacin; also recorded: significantly (p<0.01) augments cytotoxicity triggered by Velcade; also recorded: synergistically enhances bortezomib-induced cytotoxicity
co-immunoprecipitation between HDAC6 and ubiquitinated proteins [3]: unaffected
co-immunoprecipitation of HDAC6 with dynein [3]: markedly inhibited in a dose-dependent fashion; also recorded: inhibits binding of HDAC6 with dynein
